The results in this text go back to publication PMC6930500, “Structure–Activity Relationships of 7-Substituted Dimethyltyrosine-Tetrahydroisoquinoline Opioid Peptidomimetics” (Molecules, 2019).

For assay [1], the target named is T1, human KOR (Homo sapiens, UniProt P41145).
T1 construct: expressed in transfected cells; cell lines provided by Professor Lawrence Toll
Kind of assay: [35S]-GTPγS binding stimulation, KOR. In kind it is biochemical. The following applies: mean (SEM); for EC50 / EC50 KOR: CHO-human KOR membranes, * n = 2, dns = does not stimulate, average maximal stimulation <10% at up to 10 µM; for Emax / % Stimulation KOR: versus 10 µM standard agonist U69,593, dns = average maximal stimulation <10% at up to 10 µM. The protocol: (§1) Each novel compound was evaluated for binding to and stimulation of KOR, MOR, and DOR. Binding affinity (Ki) was determined by competitive displacement of [^3H]-diprenorphine, a non-selective opioid receptor antagonist with similar affinity for each of the three receptors. Potency (EC50) and efficacy, expressed as percent stimulation compared to a standard agonist at each receptor, were determined by a [^35S]-GTPγS binding assay.
(§2) Membranes prepared from transfected Chinese Hamster Ovary cells stably expressing human KOR, human MOR, or human DOR were used for all assays. Cells were grown to confluence at 37 °C in 5% CO2 in 1:1 DMEM:F12 media with 10% v/v fetal bovine serum and 5% v/v penicillin/streptomycin. Membranes were prepared by washing confluent cells three times with ice cold phosphate-buffered saline (0.9% NaCl, 0.61 mM Na2HPO4, 0.38 mM KH2PO4, pH 7.4). Cells were detached from the plates by incubation in warm harvesting buffer (20 mM HEPES, 150 mM NaCl, 0.68 mM EDTA, pH 7.4) and pelleted by centrifugation at 200× g for 3 min. The cell pellet was suspended in ice-cold 50 mM Tris-HCl buffer, pH 7.4 and homogenized with a Tissue Tearor (Biospec Products, Inc, distributed by Cole-Parmer, Vernon Hills, IL, USA) for 20 s at setting 4. The homogenate was centrifuged at 20,000× g for 20 min at 4 °C, and the pellet was rehomogenized in 50 mM Tris-HCl pH 7.4 with a Tissue Tearor for 10 s at setting 2, followed by recentrifugation. The final pellet was resuspended in 50 mM Tris-HCl pH 7.4 and frozen in aliquots at −80 °C. Protein concentration was determined via Pierce BCA protein assay kit using bovine serum albumin as the standard.
(§3) Agonist stimulation of KOR, MOR, and DOR by all test compounds was determined by [^35S]-guanosine 5′-O-[γ-thio]triphosphate ([^35S]-GTPγS) binding assays as previously reported. In a 96-well plate format, membranes from cells expressing opioid receptors as described above (10 µg of protein), [^35S]-GTPγS (0.1 nM), and guanosine diphosphate (30 µM) were incubated in GTPγS buffer (50 mM Tris-HCl, 100 mM NaCl, 5 mM MgCl2, 1 mM EDTA, pH 7.4) with various concentrations of test compound at 25 °C for 1 h. Basal stimulation was determined by incubation in the absence of any ligand. After incubation, membranes were filtered through Whatman GF/C 1.2 micron glass fiber filters and washed with GTPγS buffer with no EDTA. The radioactivity remaining on the filters was then quantified by liquid scintillation counting after saturation with EcoLume liquid scintillation cocktail in a Perkin-Elmer Microbeta 2450. Data are reported as percent stimulation compared to the effects of 10 µM standard agonists—U69,593 (KOR), DAMGO (MOR), or DPDPE (DOR). Percent stimulation and EC50 values were determined via nonlinear regression analysis using GraphPad Prism software from at least three separate assays performed in duplicate. Efficacy is expressed as percent stimulation relative to standard agonists.
Background: Binding of GTPγS marks nucleotide exchange on a G protein.

Assay [2] concerns the target T2, human MOR (Homo sapiens, UniProt P35372).
T2 construct: expressed in transfected cells; cell lines provided by Professor Lawrence Toll
The experiment in a line: [3H]-diprenorphine competitive displacement binding, MOR. The following applies: membranes from CHO cells expressing human MOR; mean (SEM), n>=3 in duplicate. The protocol:
as §1, §2
(§4) Binding affinities for all test compounds at KOR, MOR, and DOR were determined by competitive displacement of [^3H]-diprenorphine as previously reported. In a 96-well plate format, cell membranes (5–10 µg of protein) and [^3H]-diprenorphine (0.2 nM) were incubated in Tris-HCl buffer (50 mM, pH 7.4) with various concentrations of test compound at 25 °C for 1 h, allowing the mixture to reach equilibrium. Nonspecific binding was determined using the opioid antagonist naloxone (10 µM), and total binding was determined using vehicle in the absence of competitive ligand. After incubation, membranes were filtered through Whatman GF/C 1.2 micron glass fiber filters and washed with 50 mM Tris-HCl buffer. The radioactivity remaining on the filters was then quantified by liquid scintillation counting after saturation with EcoLume liquid scintillation cocktail in a Microbeta 2450 (Perkin-Elmer, Waltham, MA, USA). Binding affinity (Ki) values were calculated using the Cheng–Prusoff equation via nonlinear regression analysis using GraphPad Prism software from at least three separate binding assays performed in duplicate.

Assay [3] addresses T3, human DOR (Homo sapiens, UniProt P41143).
T3 construct: expressed in transfected cells; cell lines provided by Professor Lawrence Toll
Kind of assay: [35S]-GTPγS binding stimulation, DOR. Format: biochemical. The following applies: mean (SEM), * n = 2; for % Stimulation DOR: versus 10 µM standard agonist DPDPE, dns = average maximal stimulation <10% at up to 10 µM. As to the method:
as §1, §2, §3

Assay [4] addresses T3, human DOR. The experiment in a line: [3H]-diprenorphine competitive displacement binding, DOR. The following applies: membranes from CHO cells expressing human DOR; mean (SEM), n>=3 in duplicate. As to the method:
as §1, §2, §4

In assay [5] the target is T1, human KOR. The experiment in a line: [3H]-diprenorphine competitive displacement binding, KOR. The following applies: for Ki: membranes from CHO cells expressing human KOR, mean (SEM), n>=3 in duplicate. As to the method:
as §1, §2, §4

Assay [6] addresses T2, human MOR. Kind of assay: [35S]-GTPγS binding stimulation, MOR. Format: biochemical. As to conditions: for EC50: CHO-human MOR membranes, dns = does not stimulate, average maximal stimulation <10% at up to 10 µM; for EC50 / Emax: mean (SEM), * n = 2; for Emax: versus 10 µM standard agonist DAMGO, dns = average maximal stimulation <10% at up to 10 µM. The protocol: as §1, §2, §3

Where [7] appears, read: CHO-human DOR membranes, dns = does not stimulate, average maximal stimulation <10% at up to 10 µM.

With `Cc1cc(O)cc(C)c1C[C@H](N)C(=O)N1CCc2ccc(Cc3cccc4ncccc34)cc2C1` [Compound 8t, (S)-2-amino-3-(4-hydroxy-2,6-dimethylphenyl)-1-(7-(quinolin-5-ylmethyl)-3,4-dihydroisoquinolin-2(1H)-yl)propan-1-one], the EC50 amounted to 58 nM on human KOR [1] and 54 nM on human MOR [6]. Further, the maximum response (Emax) at human KOR [1] is 69%; at human MOR [6], 31%. In addition, the Ki on human MOR [2] worked out at 4.6 nM; at human DOR [4] it was 1.2 nM; at human KOR [5], 1.5 nM. For the same molecule, the “EC50 DOR” value on human DOR [3] (setting [7]) is reported as “dns *”. Moreover, the “% Stimulation DOR” value at human DOR [3] is given as “dns *”. Further, the “selective for KOR and DOR over MOR” value on human KOR [5] (binding selectivity) is given as “approximately 3 fold”. For the same molecule, the “more potent at MOR (versus KOR)” value at human MOR [6] (ratio of EC50 values, GTPγS) is on record as “equipotent”.

In the case of `Cc1cc(O)cc(C)c1C[C@H](N)C(=O)N1CCc2ccc(Cc3ccnc4ccccc34)cc2C1` [Compound 8u, (S)-2-amino-3-(4-hydroxy-2,6-dimethylphenyl)-1-(7-(quinolin-4-ylmethyl)-3,4-dihydroisoquinolin-2(1H)-yl)propan-1-one], at human KOR [1], the “EC50 KOR” value is given as “dns” and the “% Stimulation KOR” value is given as “dns”. For the same molecule, the inhibitory constant (Ki) at human MOR [2] amounted to 6.6 nM. Also, at human DOR [3] (setting [7]), the “EC50 DOR” value was “dns *”. Besides, the “% Stimulation DOR” value at human DOR [3] is reported as “dns *”. Also, the inhibition constant (Ki) at human DOR [4] was 0.79 nM. In addition, the inhibitory constant (Ki) on human KOR [5] came out at 8.6 nM. At human MOR [6], this molecule came in with an EC50 of 54 nM and an Emax of 45%.

Take `Cc1cc(O)cc(C)c1C[C@H](N)C(=O)N1CCc2ccc(Cc3cncc4ccccc34)cc2C1` [Compound 8v, (S)-2-amino-3-(4-hydroxy-2,6-dimethylphenyl)-1-(7-(isoquinolin-4-ylmethyl)-3,4-dihydroisoquinolin-2(1H)-yl)propan-1-one]: the values for the EC50 at human KOR [1], on human DOR [3] (setting [7]) and on human MOR [6] were 14 nM, 19 nM and 12 nM, respectively. Further, the maximum response (Emax) at human KOR [1] was determined as 71%; on human MOR [6] it was 81%. Moreover, the Ki on human MOR [2] is 1.4 nM; on human DOR [4], 0.3 nM; at human KOR [5], 0.73 nM. For the same molecule, the “% Stimulation DOR” value at human DOR [3] is given as 39 (7) %.

With `Cc1cc(O)cc(C)c1C[C@H](N)C(=O)N1CCc2ccc(CN3CCc4ccccc4C3)cc2C1` [Compound 8w, (S)-2-amino-1-(7-((3,4-dihydroisoquinolin-2(1H)-yl)methyl)-3,4-dihydroisoquinolin-2(1H)-yl)-3-(4-hydroxy-2,6-dimethylphenyl)propan-1-one], the “EC50 KOR” value at human KOR [1] is recorded as “dns”. On human KOR [1], the “% Stimulation KOR” value is “dns”. In addition, the Ki on human MOR [2] turned out to be 0.6 nM; at human DOR [4] it was 2.3 nM; at human KOR [5] it was 42 nM. Moreover, the “EC50 DOR” value at human DOR [3] (setting [7]) is “dns *”. Also, on human DOR [3], the “% Stimulation DOR” value is listed as “dns *”. For the same molecule, at human KOR [5] (binding selectivity), the “selectivity for MOR and DOR over KOR” value is 18 fold. The EC50 at human MOR [6] worked out at 8.2 nM. The same molecule displayed a maximal response (Emax) at human MOR [6] of 85%.

Turning to `Cc1cc(O)cc(C)c1C[C@H](N)C(=O)N1CCc2ccc(CN3CCCc4ccccc43)cc2C1` [Compound 8x, (S)-2-amino-1-(7-((3,4-dihydroquinolin-1(2H)-yl)methyl)-3,4-dihydroisoquinolin-2(1H)-yl)-3-(4-hydroxy-2,6-dimethylphenyl)propan-1-one], the EC50 at human KOR [1] was 375 nM; at human MOR [6] it was 73 nM. Besides, the maximum response (Emax) at human KOR [1] was found to be 67%; at human MOR [6] it was 65%. Moreover, the Ki worked out at 7.2 nM on human MOR [2], 6.6 nM at human DOR [4] and 7.1 nM at human KOR [5]. For the same molecule, the “EC50 DOR” value on human DOR [3] (setting [7]) is “dns *”. The “% Stimulation DOR” value at human DOR [3] is “dns *”.

For the molecule `Cc1cc(O)cc(C)c1C[C@H](N)C(=O)N1CCc2ccc(CN3CCc4ccccc43)cc2C1` [Compound 8y, (S)-2-amino-3-(4-hydroxy-2,6-dimethylphenyl)-1-(7-(indolin-1-ylmethyl)-3,4-dihydroisoquinolin-2(1H)-yl)propan-1-one], the results for the EC50 on human KOR [1] and on human MOR [6] were 106 nM and 42 nM, respectively. Moreover, the maximal response (Emax) on human KOR [1] is 66%; at human MOR [6], 65%. The figures for the Ki at human MOR [2], at human DOR [4] and on human KOR [5] were 2.2 nM, 1.7 nM and 2.6 nM, respectively. Moreover, the “EC50 DOR” value at human DOR [3] (setting [7]) is given as “dns *”. In addition, the “% Stimulation DOR” value on human DOR [3] is on record as “dns *”.

`Cc1cc(O)cc(C)c1C[C@H](N)C(=O)N1CCc2ccc(CN3Cc4ccccc4C3)cc2C1` [Compound 8z, (S)-2-amino-3-(4-hydroxy-2,6-dimethylphenyl)-1-(7-(isoindolin-2-ylmethyl)-3,4-dihydroisoquinolin-2(1H)-yl)propan-1-one]: at human KOR [1], the “EC50 KOR” value is given as “dns” and the “% Stimulation KOR” value is given as “dns”. On human MOR [2], this molecule yielded a Ki of 1.5 nM. Further, on human DOR [3] (setting [7]), the “EC50 DOR” value was “dns *”. The “% Stimulation DOR” value at human DOR [3] was “dns *”. In addition, the Ki at human DOR [4] amounted to 1.3 nM. The “selectivity for MOR and DOR over KOR” value on human KOR [5] (binding selectivity) worked out at 43 fold. The molecule further showed a Ki at human KOR [5] of 65 nM. On human MOR [6], it took 27 nM to reach a half-maximal effect (EC50) and the maximal response (Emax) was 63%.

By EC50 is commonly meant the concentration that produces a half-maximal response. A high value points to a less potent agent. Broadly, the Emax is the maximal effect, on the per cent scale that the assay sets. For orientation: Ki means a measure of affinity in units of concentration, obtained from inhibition or displacement. The low end stands for tighter binding, the high end for weaker binding.
